Calls of active or inactive are those of the source. The rule behind the calls is not given here.
How the values were obtained:
[1] = Permeability across human Caco-2 cell membrane; assay type: ADME, cell-based; conditions: read-out: permeability
[2] = biological target: T1, Kinesin-like protein KIF3B (Homo sapiens, UniProt O15066); test: Inhibition of Kif3B
T1 sequence (O15066 whole entry): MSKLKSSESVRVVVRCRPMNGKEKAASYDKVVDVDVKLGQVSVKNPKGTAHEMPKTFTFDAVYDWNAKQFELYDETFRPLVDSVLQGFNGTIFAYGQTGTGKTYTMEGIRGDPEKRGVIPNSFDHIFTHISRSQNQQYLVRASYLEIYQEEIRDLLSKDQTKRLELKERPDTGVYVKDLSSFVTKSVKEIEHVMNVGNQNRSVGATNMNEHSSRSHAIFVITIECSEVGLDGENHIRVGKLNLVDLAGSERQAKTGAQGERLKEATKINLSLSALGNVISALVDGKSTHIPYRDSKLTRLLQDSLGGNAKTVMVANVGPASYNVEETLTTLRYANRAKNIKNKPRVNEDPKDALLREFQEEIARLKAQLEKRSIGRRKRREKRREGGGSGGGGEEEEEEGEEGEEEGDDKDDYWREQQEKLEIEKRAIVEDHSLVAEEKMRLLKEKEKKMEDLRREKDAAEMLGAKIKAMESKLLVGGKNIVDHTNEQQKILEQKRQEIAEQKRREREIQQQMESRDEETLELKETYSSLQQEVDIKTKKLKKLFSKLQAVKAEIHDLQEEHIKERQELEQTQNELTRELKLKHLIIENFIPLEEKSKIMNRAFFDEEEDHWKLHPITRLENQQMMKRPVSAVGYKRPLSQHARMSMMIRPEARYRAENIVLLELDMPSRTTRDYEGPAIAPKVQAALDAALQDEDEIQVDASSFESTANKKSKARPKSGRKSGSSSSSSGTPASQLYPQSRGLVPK

[3] = biological target: T2, Kinesin-like protein KIF11 (Homo sapiens, UniProt P52732); test: Inhibition of human kinesin spindle protein by endpoint assay
T2 sequence (P52732 whole entry): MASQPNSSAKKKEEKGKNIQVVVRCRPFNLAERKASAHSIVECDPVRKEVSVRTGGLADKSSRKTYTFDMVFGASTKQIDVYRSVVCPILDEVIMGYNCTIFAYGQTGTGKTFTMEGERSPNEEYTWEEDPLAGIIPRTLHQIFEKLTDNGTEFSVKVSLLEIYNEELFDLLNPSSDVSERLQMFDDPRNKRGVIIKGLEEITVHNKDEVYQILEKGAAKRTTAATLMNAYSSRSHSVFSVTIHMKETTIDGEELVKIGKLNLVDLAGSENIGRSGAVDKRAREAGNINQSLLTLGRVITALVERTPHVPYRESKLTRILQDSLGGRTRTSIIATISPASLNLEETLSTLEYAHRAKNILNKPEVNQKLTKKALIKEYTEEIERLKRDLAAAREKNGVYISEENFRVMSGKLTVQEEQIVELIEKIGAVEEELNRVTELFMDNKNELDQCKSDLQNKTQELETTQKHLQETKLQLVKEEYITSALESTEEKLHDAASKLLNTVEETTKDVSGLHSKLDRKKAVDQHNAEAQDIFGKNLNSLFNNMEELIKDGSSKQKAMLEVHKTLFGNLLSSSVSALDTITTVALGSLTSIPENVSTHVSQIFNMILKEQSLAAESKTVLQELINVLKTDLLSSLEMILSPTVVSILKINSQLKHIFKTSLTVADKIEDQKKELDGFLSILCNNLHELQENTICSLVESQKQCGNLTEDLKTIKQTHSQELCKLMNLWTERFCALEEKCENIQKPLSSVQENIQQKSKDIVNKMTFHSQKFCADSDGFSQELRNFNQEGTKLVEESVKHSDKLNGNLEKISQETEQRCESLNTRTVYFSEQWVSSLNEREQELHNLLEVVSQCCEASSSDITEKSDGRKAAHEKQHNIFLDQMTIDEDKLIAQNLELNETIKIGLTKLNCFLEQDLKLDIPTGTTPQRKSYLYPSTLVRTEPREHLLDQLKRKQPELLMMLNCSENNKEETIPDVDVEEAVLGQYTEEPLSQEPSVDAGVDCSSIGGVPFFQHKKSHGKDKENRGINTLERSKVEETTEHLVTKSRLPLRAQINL

[4] = biological target: T3, Kinesin heavy chain isoform 5A (Homo sapiens, UniProt Q12840); test: Inhibition of nKHC
T3 sequence (Q12840 whole entry): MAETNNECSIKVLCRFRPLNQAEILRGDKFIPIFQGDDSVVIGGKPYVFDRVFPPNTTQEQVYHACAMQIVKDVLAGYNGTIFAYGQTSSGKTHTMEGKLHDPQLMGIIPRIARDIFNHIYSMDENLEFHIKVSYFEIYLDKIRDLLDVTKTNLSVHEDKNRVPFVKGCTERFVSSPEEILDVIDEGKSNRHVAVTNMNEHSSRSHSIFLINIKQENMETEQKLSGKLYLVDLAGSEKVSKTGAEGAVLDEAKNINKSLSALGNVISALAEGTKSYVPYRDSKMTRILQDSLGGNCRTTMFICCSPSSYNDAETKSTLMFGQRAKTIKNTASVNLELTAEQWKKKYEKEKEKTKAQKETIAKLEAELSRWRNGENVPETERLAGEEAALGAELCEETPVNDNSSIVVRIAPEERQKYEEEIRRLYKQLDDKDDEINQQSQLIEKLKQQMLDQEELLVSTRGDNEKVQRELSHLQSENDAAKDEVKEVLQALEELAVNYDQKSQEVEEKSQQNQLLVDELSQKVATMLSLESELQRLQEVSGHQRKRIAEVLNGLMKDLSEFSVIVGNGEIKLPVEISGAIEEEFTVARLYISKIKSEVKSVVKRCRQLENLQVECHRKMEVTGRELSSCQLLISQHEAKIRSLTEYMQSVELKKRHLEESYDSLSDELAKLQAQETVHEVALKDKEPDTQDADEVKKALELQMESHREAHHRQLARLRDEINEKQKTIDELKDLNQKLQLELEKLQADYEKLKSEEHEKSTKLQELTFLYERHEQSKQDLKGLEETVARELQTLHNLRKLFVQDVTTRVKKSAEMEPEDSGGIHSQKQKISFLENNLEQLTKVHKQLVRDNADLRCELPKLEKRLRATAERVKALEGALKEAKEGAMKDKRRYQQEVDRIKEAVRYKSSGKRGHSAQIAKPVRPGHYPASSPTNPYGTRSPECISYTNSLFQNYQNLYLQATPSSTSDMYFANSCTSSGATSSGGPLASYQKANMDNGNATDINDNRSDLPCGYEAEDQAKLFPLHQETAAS

Cytochrome P450 3A4 [5] = biological target: T4, Cytochrome P450 3A4 (Homo sapiens, UniProt P08684); test: Inhibition of CYP3A4 preincubated with compound; assay type: ADME
T4 sequence (P08684 whole entry): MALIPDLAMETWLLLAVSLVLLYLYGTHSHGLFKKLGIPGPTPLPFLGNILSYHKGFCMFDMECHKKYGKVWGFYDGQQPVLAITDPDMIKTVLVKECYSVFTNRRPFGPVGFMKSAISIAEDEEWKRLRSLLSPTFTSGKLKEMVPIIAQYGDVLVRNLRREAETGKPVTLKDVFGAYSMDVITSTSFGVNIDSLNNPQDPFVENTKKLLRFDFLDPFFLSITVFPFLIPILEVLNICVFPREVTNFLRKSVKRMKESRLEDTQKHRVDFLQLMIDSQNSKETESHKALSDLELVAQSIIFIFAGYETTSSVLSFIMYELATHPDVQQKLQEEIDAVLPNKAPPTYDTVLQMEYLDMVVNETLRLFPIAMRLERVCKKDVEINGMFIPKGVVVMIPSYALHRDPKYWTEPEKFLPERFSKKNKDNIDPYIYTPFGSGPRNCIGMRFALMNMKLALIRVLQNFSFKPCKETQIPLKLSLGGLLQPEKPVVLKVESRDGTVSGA

Cytochrome P450 2C9 [6] = biological target: T5, Cytochrome P450 2C9 (Homo sapiens, UniProt P11712); test: Inhibition of CYP2C9 preincubated with compound; assay type: ADME
T5 sequence (P11712 whole entry): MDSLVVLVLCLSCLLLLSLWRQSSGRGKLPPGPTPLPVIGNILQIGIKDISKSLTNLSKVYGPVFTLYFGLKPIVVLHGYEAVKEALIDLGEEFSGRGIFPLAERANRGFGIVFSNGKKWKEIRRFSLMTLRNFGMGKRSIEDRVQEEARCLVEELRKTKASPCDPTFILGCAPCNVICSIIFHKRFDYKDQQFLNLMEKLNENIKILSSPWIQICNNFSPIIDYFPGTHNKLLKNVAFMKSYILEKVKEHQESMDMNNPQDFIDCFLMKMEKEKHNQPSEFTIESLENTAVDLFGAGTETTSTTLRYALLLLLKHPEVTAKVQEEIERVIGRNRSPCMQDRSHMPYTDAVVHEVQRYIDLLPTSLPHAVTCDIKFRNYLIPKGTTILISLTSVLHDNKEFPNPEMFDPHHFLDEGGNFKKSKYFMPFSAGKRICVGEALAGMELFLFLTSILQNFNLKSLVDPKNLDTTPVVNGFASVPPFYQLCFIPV

Cytochrome P450 2D6 [7] = biological target: T6, Cytochrome P450 2D6 (Homo sapiens, UniProt P10635); test: Inhibition of CYP2D6 coincubated with compound; assay type: ADME
T6 sequence (P10635 whole entry): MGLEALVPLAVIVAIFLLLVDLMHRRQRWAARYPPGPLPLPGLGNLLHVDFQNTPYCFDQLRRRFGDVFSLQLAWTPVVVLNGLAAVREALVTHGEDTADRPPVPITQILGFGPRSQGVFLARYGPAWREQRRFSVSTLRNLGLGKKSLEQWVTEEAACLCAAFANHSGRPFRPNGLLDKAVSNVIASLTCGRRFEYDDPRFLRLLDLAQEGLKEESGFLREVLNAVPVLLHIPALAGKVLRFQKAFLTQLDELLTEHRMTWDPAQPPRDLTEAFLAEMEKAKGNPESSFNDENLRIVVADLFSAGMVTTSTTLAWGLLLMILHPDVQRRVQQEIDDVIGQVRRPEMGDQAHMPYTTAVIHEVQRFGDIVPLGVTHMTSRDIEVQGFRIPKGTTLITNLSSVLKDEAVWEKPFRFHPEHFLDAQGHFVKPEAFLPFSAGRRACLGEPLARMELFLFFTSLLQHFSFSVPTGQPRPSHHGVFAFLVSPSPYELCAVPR

Rattus norvegicus = test: AUC in rat at 10 mg/kg after 6 hrs; assay type: ADME, organism-based, Plasma; design: time < 6 hr, dose 10 mg/kg; conditions: in vivo
Cytochrome P450 3A4 [8] = biological target: T4, Cytochrome P450 3A4; test: Inhibition of CYP3A4 coincubated with compound; assay type: ADME
Cytochrome P450 2D6 [9] = biological target: T6, Cytochrome P450 2D6; test: Inhibition of CYP2D6 preincubated with compound; assay type: ADME
Cytochrome P450 2C9 [10] = biological target: T5, Cytochrome P450 2C9; test: Inhibition of CYP2C9 coincubated with compound; assay type: ADME
[11] = biological target: Kinesin-like protein KIF11 (Homo sapiens) (UniProt P52732); test: Selectivity for human KSP over HSET
A2780 [12] = test: Antiproliferative activity against human A2780 cells after 48 hrs by Almar blue assay; assay type: functional, cell-based; conditions: A2780, 48 h
A2780 [13] = test: Antiproliferative activity against human A2780 cells assessed s occurrence of monostral phenotype at 25 uM after 48 hrs by Almar blue assay; assay type: functional, cell-based

| Papp [1] [×10⁻⁶ cm/s] | IC50 [2] [µM] | IC50 [3] [µM] | IC50 [4] [µM] | IC50 (Cytochrome P450 3A4 [5]) [µM] | IC50 (Cytochrome P450 2C9 [6]) [µM] | IC50 (Cytochrome P450 2D6 [7]) [µM] | AUC (Rattus norvegicus) [µM·h] | IC50 (Cytochrome P450 3A4 [8]) [µM] | IC50 (Cytochrome P450 2D6 [9]) [µM] | IC50 (Cytochrome P450 2C9 [10]) [µM] | fold change (FC) [11] | IC50 (A2780 [12]) [µM] | SMILES | Activity (A2780 [13]) |
| --- | --- | --- | --- | --- | --- | --- | --- | --- | --- | --- | --- | --- | --- | --- |
| 1.8 | > 50 | 4.8 | > 50 | > 20 | > 8 | > 30 | 0 | > 30 | > 15 | 15 | – | – | CS(=O)(=O)c1ccc(Nc2nc3cc(C(N)=O)ccc3n2Cc2ccccc2C(F)(F)F)cc1 | – |
| 53 | > 50 | 0.52 | > 50 | < 15 | > 7 | > 30 | 0.15 | > 30 | > 15 | 14 | 8 | 16 | CSc1ccc(Nc2nc3cc(C(N)=O)ccc3n2Cc2ccccc2C(F)(F)F)cc1 | Active |
| 67 | > 50 | 2.5 | > 50 | > 15 | > 4 | > 30 | 0.6 | > 30 | > 15 | 8 | – | 19 | COc1ccc(Nc2nc3cc(C(N)=O)ccc3n2Cc2ccccc2C(F)(F)F)cc1 | Active |

From ChEMBL document CHEMBL1158447, “Substituted benzimidazoles: A novel chemotype for small molecule hKSP inhibitors” (Bioorg Med Chem Lett, 2009)
